{
  "source": "patent US20240132464A1",
  "about": "“HETEROCYCLIC COMPOUNDS AS E3 LIGASE INHIBITORS” (Accutar Biotechnology Inc., priority 2022, published 2024)",
  "data": [
    {"target": "T1, GID4 (Uniprot ID: Q81VV7, residues 124-289) (Homo sapiens, UniProt Q8IVV7)", "T1 construct": "GID4 (Uniprot ID: Q81VV7, residues 124-289)", "T1 sequence (Q8IVV7 124-289)": "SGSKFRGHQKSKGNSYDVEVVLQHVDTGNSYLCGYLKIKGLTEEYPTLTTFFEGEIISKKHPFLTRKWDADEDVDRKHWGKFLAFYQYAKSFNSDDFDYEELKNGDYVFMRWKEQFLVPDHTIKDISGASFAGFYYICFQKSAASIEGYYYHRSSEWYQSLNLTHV", "experiment": "GID4 competitive binding assay (AlphaScreen, GID4/degron peptide PGLW)", "details": "24 nM GID4, 48 nM biotinylated degron peptide PGLW, 4° C., read-out: IC50 (Inhibition of GID4/Degron binding by test compounds)", "procedure,_shortened": "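His-tagged human GID4 (residues 124-289, 24 nM) pre-incubated 2 h at 4 °C with 48 nM biotinylated PGLW peptide and compound in HEPES pH 7.5 buffer, 2% DMSO (final). AlphaScreen streptavidin donor/Ni-NTA acceptor beads added for 1 h; IC50 from nonlinear fit of % inhibition versus DMSO.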", "units": {"IC50": "nM"}, "values": [
      {"compound": "CC(C)c1cc(N2CCNC(c3ccccc3Br)C2)nc(N)n1", "note": "(stereo not drawn) [Compound 183, 4-(3-(2-bromophenyl)piperazin-1-yl)-6-isopropylpyrimidin-2-amine]", "IC50": "< 500"},
      {"compound": "CCOc1ccc(Br)c(C2CN(c3cc(N)nc(N)n3)CCN2)c1", "note": "(single isomer, unassigned) [Compound 24, (S/R)-6-(3-(2-bromo-5-ethoxyphenyl)piperazin-1-yl)pyrimidine-2,4-diamine]", "IC50": "< 500"},
      {"compound": "CNc1nc(N)cc(N2CCCC(c3cnc4ccccn34)C2)n1", "note": "(racemic) [Compound 118, (R/S)-6-(3-(imidazo[1,2-a]pyridin-3-yl)piperidin-1-yl)-N2-methylpyrimidine-2,4-diamine]", "IC50": "500 to 5000"},
      {"compound": "CC(C)c1cc(N2CCNC(c3cc(C(=O)NCCN(C)C)ccc3Br)C2)nc(N)n1", "note": "(single isomer, unassigned) [Compound 20, R or S-3-(4-(2-amino-6-isopropylpyrimidin-4-yl)piperazin-2-yl)-4-bromo-N-(2-(dimethylamino)ethyl)benzamide]", "IC50": "500 to 5000"},
      {"compound": "CC(C)c1cc(N2CC[C@H](O)[C@@H](c3ccccc3Br)C2)nc(N)n1", "note": "(relative stereo) [Compound 223, (3,4-trans)-1-(2-amino-6-isopropylpyrimidin-4-yl)-3-(2-bromophenyl)piperidin-4-ol]", "IC50": "500 to 5000"},
      {"compound": "CN(C)CCNC(=O)c1ccc(-c2cc(O)c3ncccc3c2)cc1", "note": "[Compound 299, N-(2-(dimethylamino)ethyl)-4-(8-hydroxyquinolin-6-yl)benzamide]", "IC50": "< 500"},
      {"compound": "CC(C)c1cc(N2CCNC(c3cc(F)ccc3Br)C2)nc(N)n1", "note": "(stereo not drawn) [Compound 174, 4-(3-(2-bromo-5-fluorophenyl)piperazin-1-yl)-6-isopropylpyrimidin-2-amine]", "IC50": "500 to 5000"},
      {"compound": "Nc1nc(N)c(F)c(N2CCOC(c3ccccc3Br)C2)n1", "note": "(single isomer, unassigned) [Compound 49, (R/S)-6-(2-(2-bromophenyl)morpholino)-5-fluoropyrimidine-2,4-diamine]", "IC50": "> 5000"},
      {"compound": "CN1CCC(CNC(=O)c2n[nH]c3ccc(-c4ccc5ccnc(N)c5c4)cc23)CC1", "note": "[Compound 337, 5-(1-aminoisoquinolin-7-yl)-N-((1-methylpiperidin-4-yl)methyl)-1H-indazole-3-carboxamide]", "IC50": "< 500"},
      {"compound": "CC(C)c1nc(N)cc(N2CCN(C)C(c3ccccc3Br)C2)n1", "note": "(stereo not drawn) [Compound 74, 6-(3-(2-bromophenyl)-4-methylpiperazin-1-yl)-2-isopropylpyrimidin-4-amine]", "IC50": "500 to 5000"},
      {"compound": "CN(C)CCCNC(=O)Cc1ccc(-c2cc(O)c3ncccc3c2)cc1", "note": "[Compound 288, N-(3-(dimethylamino)propyl)-2-(4-(8-hydroxyquinolin-6-yl)phenyl)acetamide]", "IC50": "< 500"},
      {"compound": "Nc1nc(N2CCNC(c3ccccc3Br)C2)c2cc[nH]c2n1", "note": "(single isomer, unassigned) [Compound 56, (R/S)-4-(3-(2-bromophenyl)piperazin-1-yl)-7H-pyrrolo[2,3-d]pyrimidin-2-amine]", "IC50": "500 to 5000"},
      {"compound": "Nc1nc(NC2CC2)c(Cl)c(N2CCNC(c3ccccc3Br)C2)n1", "note": "(stereo not drawn) [Compound 63, 6-(3-(2-bromophenyl)piperazin-1-yl)-5-chloro-N4-cyclopropylpyrimidine-2,4-diamine]", "IC50": "500 to 5000"},
      {"compound": "CNc1nc(C(C)C)cc(N2CCNC(c3ccccc3Br)C2)n1", "note": "(single isomer, unassigned) [Compound 153, R or S-4-(3-(2-bromophenyl)piperazin-1-yl)-6-isopropyl-N-methylpyrimidin-2-amine]", "IC50": "500 to 5000"},
      {"compound": "CN(C)CCNCc1n[nH]c2ccc(-c3ccc4ccnc(N)c4c3)cc12", "note": "[Compound 3, N1-((5-(1-aminoisoquinolin-7-yl)-1H-indazol-3-yl)methyl)-N2,N2-dimethylethane-1,2-diamine]", "IC50": "< 500"},
      {"compound": "CN1CCC(C)(NC(=O)c2n[nH]c3ccc(-c4ccc5ccnc(N)c5c4)cc23)CC1", "note": "[Compound 10, 5-(1-aminoisoquinolin-7-yl)-N-(1,4-dimethylpiperidin-4-yl)-1H-indazole-3-carboxamide]", "IC50": "< 500"},
      {"compound": "CN(C)[C@H]1CC[C@H](NC(=O)c2ccc(-c3cc(O)c4ncccc4c3)cc2)CC1", "note": "[Compound 287, N-(trans-4-(dimethylamino)cyclohexyl)-4-(8-hydroxyquinolin-6-yl)benzamide]", "IC50": "< 500"},
      {"compound": "CN1CCN(c2cc(N)nc(NC3CC3)n2)CC1c1ccccc1Br", "note": "(stereo not drawn) [Compound 71, 6-(3-(2-bromophenyl)-4-methylpiperazin-1-yl)-N2-cyclopropylpyrimidine-2,4-diamine]", "IC50": "< 500"},
      {"compound": "c1ccn2c(C3CCCN(c4ncnc5[nH]ccc45)C3)cnc2c1", "note": "(stereo not drawn) [Compound 90, 4-(3-(imidazo[1,2-a]pyridin-3-yl)piperidin-1-yl)-7H-pyrrolo[2,3-d]pyrimidine]", "IC50": "> 5000"},
      {"compound": "CC(C)c1cc(N2CCNC(c3cc(C(=O)NCCN(C)C)ccc3Br)C2)nc(N)n1", "note": "(racemic) [Compound 21, R or S-3-(4-(2-amino-6-isopropylpyrimidin-4-yl)piperazin-2-yl)-4-bromo-N-(2-(dimethylamino)ethyl)benzamide]", "IC50": "< 500"},
      {"compound": "Nc1cc(N2CCCC(c3ccn[nH]3)C2)nc(N)n1", "note": "(stereo not drawn) [Compound 193, 6-(3-(1H-pyrazol-5-yl)piperidin-1-yl)pyrimidine-2,4-diamine]", "IC50": "> 5000"},
      {"compound": "CN(C)CCCNC(=O)c1ccc(-c2cc(O)c3ncccc3c2)cn1", "note": "[Compound 295, N-(3-(dimethylamino)propyl)-5-(8-hydroxyquinolin-6-yl)picolinamide]", "IC50": "< 500"},
      {"compound": "Nc1nc(N2CCOC(c3ccccc3Br)C2)c2[nH]ccc2n1", "note": "(single isomer, unassigned) [Compound 46, (R/S)-4-(2-(2-bromophenyl)morpholino)-5H-pyrrolo[3,2-d]pyrimidin-2-amine]", "IC50": "500 to 5000"},
      {"compound": "CN1CCN(c2cc(NCC3CC3)nc(N)n2)C[C@@H]1c1ccccc1Br", "note": "(racemic) [Compound 100, (S/R)-6-(3-(2-bromophenyl)-4-methylpiperazin-1-yl)-N4-(cyclopropylmethyl)pyrimidine-2,4-diamine]", "IC50": "> 5000"},
      {"compound": "Nc1nccc2c(O)cc(-c3cccc(C(=O)N4CCCC4)c3)cc12", "note": "[Compound 266, (3-(1-amino-5-hydroxyisoquinolin-7-yl)phenyl)(pyrrolidin-1-yl)methanone]", "IC50": "> 5000"},
      {"compound": "CN1CCC(CNC(=O)c2ccc(-c3cc(O)c4ncccc4c3)cc2)C1", "note": "(stereo not drawn) [Compound 292, 4-(8-hydroxyquinolin-6-yl)-N-((1-methylpyrrolidin-3-yl)methyl)benzamide]", "IC50": "< 500"},
      {"compound": "Nc1nccc2ccc(-c3ccc4[nH]nc(C(=O)N5CCC(O)CC5)c4c3)cc12", "note": "[Compound 336, (5-(1-aminoisoquinolin-7-yl)-1H-indazol-3-yl)(4-hydroxypiperidin-1-yl)methanone]", "IC50": "< 500"},
      {"compound": "c1ccn2c(C3CCCN(c4ccnc5[nH]ccc45)C3)cnc2c1", "note": "(stereo not drawn) [Compound 91, 3-(1-(1H-pyrrolo[2,3-b]pyridin-4-yl)piperidin-3-yl)imidazo[1,2-a]pyridine]", "IC50": "< 500"},
      {"compound": "CC(C)c1cc(N2CCCC(c3nc4ccccc4[nH]3)C2)nc(N)n1", "note": "(stereo not drawn) [Compound 181, 4-(3-(1H-benzo[d]imidazol-2-yl)piperidin-1-yl)-6-isopropylpyrimidin-2-amine]", "IC50": "> 5000"},
      {"compound": "CC(C)c1cc(N2CC[C@@H](F)[C@@H](c3ncn4ccccc34)C2)nc(N)n1", "note": "(racemic) [Compound 229, 4-((3R,4R)-4-fluoro-3-(imidazo[1,5-a]pyridin-1-yl)piperidin-1-yl)-6-isopropylpyrimidin-2-amine]", "IC50": "> 5000"}
    ]}
  ]
}
